Assay results: article PMC12928571, “Idler Compounds: A Simple Protocol for Openly Sharing Fridge Contents for Cross-Screening” (Journal of Medicinal Chemistry, 2026)

Experiments:
[1] = system: E. coli (NCTC 12923) +PMBN; assay: Activity against E. coli in the presence of PMBN (30 μg/mL); type: cell-based, Escherichia coli; conditions: 100 μM, active when inhibition >80%
C. albicans (NCPF 3281) = assay: Activity against C. albicans, microbroth growth inhibition (OD530); type: cell-based, Candida albicans; conditions: 100 μM; active when inhibition >80%
[2] = system: SARS-CoV-2 nonstructural protein 12 (Nsp12); conditions: from originating SARS-CoV-2 Nsp12 project; cited from earlier work
[3] = Solubility by forward light-scatter (NEPHELOstar Plus); type: physicochemical; conditions: 1% DMSO in DPBS pH 7.1, 37 °C; for solubility (in words): 2 h
Huh7 cells = conditions: reported after plate MHT-0001 was prepared, reference not printed at the place; cited from earlier work
DENV serotype 2 = conditions: from originating DENV RdRp project; reference not printed at the place; cited from earlier work
[4] = system: A. baumannii (ATCC 17978) +PMBN; assay: Activity against A. baumannii in the presence of PMBN (30 μg/mL); type: cell-based, Acinetobacter baumannii; conditions: 100 μM, active when inhibition >80%
[5] = system: chikungunya virus nsp2 helicase; conditions: from originating chikungunya virus nsp2 helicase project; cited from earlier work
[6] = system: Mycobacterium avium (ATCC15796); assay: Activity against Mycobacterium avium, luciferase reporter strain luminescence; conditions: 10 μM; active when inhibition >50%
P. falciparum = conditions: from originating P. falciparum / Open Source Malaria projects; cited from earlier work
S. aureus (ATCC 9144) = assay: Activity against S. aureus, microbroth growth inhibition (OD600); type: cell-based, Staphylococcus aureus; conditions: 100 μM; active when inhibition >80%
[7] = system: Mycobacterium abscessus (NCTC 14045); assay: Activity against Mycobacterium abscessus, luciferase reporter strain luminescence; conditions: 10 μM; active when inhibition >50%
Gram-negative strain = assay: Activity on a Gram-negative strain without PMBN (strain not given); type: cell-based; conditions: 100 μM, strain not named

O=S(=O)(Nc1ccc(Oc2ccccc2)cc1)c1cccc(C(F)(F)F)c1 [EC055-1]
activity on E. coli +PMBN (in words) [1]: narrow–spectrum activity

COc1cc2nc(Nc3cc(C)[nH]n3)nc(Nc3cc(C)[nH]n3)c2cc1OC [MA20]
activity on C. albicans (in words) (C. albicans (NCPF 3281)): selective activity

CC1=CC(=O)C=C(C)C1=NOS(=O)(=O)c1ccc(Cl)cc1 [RA-0001351]
potency on Nsp12 (in words) [2]: potent | solubility (in words) [3]: good solubility

CC1(C)C2CCC1(C)C(OCC(O)CNC1CCCCC1)C2 (centres unmarked) [RA-0020564]
activity on E. coli +PMBN (in words) ([1]; listed as well G6): narrow–spectrum activity | CC50 (Huh7 cells): 14.5 µM | solubility at 2 h ([3]; DPBS with 1% DMSO, aqueous buffer, kinetic from dmso stock): > 100 µM

Cc1ccc(C)c(N2CCN(C(=O)C3CCN(c4ncnc5c4sc4ncccc45)CC3)CC2)c1 [RA-0020572]
antiviral activity on DENV serotype 2 (DENV serotype 2): 2.7 µM

COc1ccc(-c2ccc(CNc3ccnc(S(=O)(=O)F)c3)s2)cc1 [RA-0020649-01]
activity on C. albicans (in words) (C. albicans (NCPF 3281)): selective activity

O=C(Nc1ccccc1)C(Cl)C(=O)c1ccccc1 (centres unmarked) [RA-0020661-01]
activity on A. baumannii +PMBN (in words) [4]: narrow–spectrum activity

Oc1ccc(CN2CCN(c3ccccc3F)CC2)c2cccnc12 [RA-0020681]
activity on C. albicans (in words) (C. albicans (NCPF 3281)): selective activity | unwinding or ATPase inhibitory effect (in words) [5]: no unwinding or ATPase inhibitory effect | solubility (in words) [3]: poor

COc1ccc2c(c1)nc(-c1c[nH]c3cc(N4CCOCC4)ccc13)c1[nH]ccc12 [WEL2.76]
activity on C. albicans (in words) (C. albicans (NCPF 3281)): no noticeable effect | activity on A. baumannii +PMBN (in words) [4]: strong activity | activity on M. avium (in words) [6]: no noticeable effect | activity on E. coli +PMBN (in words) [1]: strong activity | antiplasmodial activity / inhibition against P. falciparum (in words) (P. falciparum): promising antiplasmodial activity | activity on S. aureus (in words) (S. aureus (ATCC 9144)): strong activity | activity on M. abscessus (in words) [7]: no noticeable effect | solubility (in words) [3]: poor

COc1ccc2c(c1)nc(-c1c[nH]c3ccc(N4CCSCC4)cc13)c1[nH]ccc12 [WEL2.92a]
activity on a Gram-negative strain (in words) (Gram-negative strain): showed activity

CC(C)c1cc(Nc2nc(N[C@@H](CO)C3CCCCC3)nc3[nH]ncc23)n[nH]1 [WYH-9]
activity on E. coli +PMBN (in words) [1]: narrow–spectrum activity

Nc1ncnc2cc(-c3cccc(S(N)(=O)=O)c3)sc12 [YNW5-2]
activity on M. avium (in words) [6]: showed activity | activity on E. coli +PMBN (in words) [1]: narrow–spectrum activity | antiplasmodial activity / inhibition against P. falciparum (in words) (P. falciparum): potent and selective inhibition
